pIC50: −log10 of the molar value. Read-outs that look alike come from different tables or passages of the source.
Columns and labels:
K562 cells = test: K562 cell viability, CellTiter-Glo luminescent assay; assay type: cell-based, Human; conditions: Homo sapiens, 48 h
Protocol: K562 cells were treated with indicated concentrations of CFZ for 24 h or 48 h, cell viability was then assessed using the CellTiter-Glo luminescent cell viability assay (Promega). Data is mean±SEM of three independent experiments (each in triplicates). IC50 was calculated using Graphpad prism 5 software.
K562 cells were treated as indicated for 48 h and cell viability was determined by CellTiter-Glo luminescent cell viability assay (A) graphical representation of mean±SEM of three independent experiments.
(§1) Determination of CFZ's Effect on Cell Viability and Apoptosis • a. CellTitre-Glo assay: Cell viability (in FIG. 1B, FIG. 4 and FIG. 6A) assays was performed using the ATP-based CellTiter-Glo Luminescent cell viability assay (Promega Madison, Wis.) as per the manufacturer's instruction. Briefly, (1.25×10^5) K562 cells/ml (FIG. 1B and FIG. 4) or CD34+ cells from healthy donors (FIG. 6A) were cultured in 48-well plates and were treated as indicated in the respective figures and figure descriptions (vehicle; V=0.1% DMSO). Cells were then incubated with CellTitre-Glo reagent for 15 min. Luminescence was recorded in a GloMax-96 Microplate luminometer (Promega, Madison, Wis.) with an integration time of 1 s per well. • b. Analysis of apoptosis by Annexin V staining and flow cytometry • K562 (FIG. 1C-D) and primary CP-CML cells (FIG. 1H-I) were cultured in 6 well plates (2×10^5 cells/well) and were treated with indicated concentrations of compounds as described in respective figures and their descriptions. Cells were then harvested and washed, and incubated in binding buffer (Annexin V Binding Buffer, BD Pharmingen) with 0.3% Annexin V-FITC and PI for 15 min at room temperature in dark. Apoptosis was measured by FACSCalibur flow cytometer (Becton Dickenson, San Jose, Calif.). • c. TUNEL assay • Pro-apoptotic potential was analysed using a Fluorometric APO-BrdU™ TUNEL Assay Kit (Invitrogen) according to the manufacturer's protocol (FIG. 1F). Cells were treated with Vehicle (0.1% DMSO) or CFZ (5 μM) for 48 h. Cells were then fixed in formaldehyde (4%) for 25 min at 4° C., permeabilized with 0.2% Triton-X100 and washed with PBS. Cells were then incubated in Terminal Deoxynucleotidyl Transferase (TdT) reaction buffer without TdT enzyme for 7 minutes at room temperature and then in TdT buffer with TdT enzyme at 37° C. in dark. After termination of TdT reaction, cells were stained with 5 μg/ml of PI for 15 min in dark followed by washing and analysed with fluorescence microscopy.

[1] = rat, in vivo, po
Text: (§2) Sprague-Dawley rats (n=6 per group) were divided into 3 groups. […] Plasma was separated and processed for analysis by LC-MS/MS. For pharmacokinetic and statistical analysis, plasma concentration versus time data were plotted and analyzed by non-compartmental analysis method using WinNonlin (Pharsight, Mountain View, Calif.) software.
as §2, with “For this SD” for “Sprague-Dawley”

[2] = system: CD34+ cells from imatinib-resistant patients (quiescent LSCs); test: CFSE assay of quiescent LSCs; assay type: cell-based, Human; conditions: n=3, 96 h
Protocol: Cells were gated depending on CFSE intensity. […] Apoptosis in these cells was determined by annexin V staining.
For assessing apoptosis in quiescent LSCs, purified CD34^+ cells were first stained with carboxyfluorescein succinimidyl ester (CFSE; Invitrogen) for 30 min. Cells were then washed and resuspended in SFM medium with 5 growth factors and were kept at 37° C. overnight. Next day, cells were treated as indicated in SFM medium with growth factors and were maintained further for 4 days with supplementation of the drugs every 48 h (drug concentrations in FIG. 5 and its description). Cells were then harvested, washed, and were labeled with CD34-PE and Annexin-APC antibodies and then gated into non-dividing cells (CD34^+CFSE^bright) and dividing cell (CD34^+CFSE^dim) population based on CFSE fluorescence intensity. […] Number of cells or apoptosis was determined by flowcytometry.

CrkL = test: Immunoblotting of CrkL phosphorylation in K562 cells; assay type: cell-based, Human; conditions: 30 min, Y207
Protocol: K562 cells were treated as indicated for 30 min and stat5 phosphorylation at Y694 or CrkL phosphorylation at Y207 were assessed by immunoblotting. Total stat5 or β-actin expression was assessed to ensure equal loading. Pio was used as a negative control and IMT was used as a positive control. Data is one representative of 3 independent experiments.
K562 cells were cultured in 6 well plates and treated as indicated in figures or descriptions of FIG. 1E, FIG. 1G and FIG. 2D-E. Cells were then homogenized in lysis buffer containing 50 mM Tris-HCl, pH 7.5, 150 mM NaCl, 1% NP40, 5 mM EDTA, 1 mM DTT, protease and phosphatase inhibitor cocktails (Sigma) and incubated on ice for 30 min followed by 5 cycles of freeze-thaw. Samples were then centrifuged at 14000 rpm at 4° C. for 30 min. Supernatants were then quantified by Bichinchonic acid (Sigma)-based protein estimation. Equal amount of proteins were solubilized in Laemmli buffer, and were resolved by 10%-12% SDS PAGE and transferred onto PVDF membranes (Millipore; Billerica, Mass.). Membranes were blocked in 5% (w/v) non-fat dried milk powder (Sigma) in PBS containing 0.2% Tween 20 (Sigma). […] Immunoreactivity was detected using a chemiluminescent HRP Substrate (Millipore) in a LAS 4010 Chemi-doc Imager (GE Healthcare, Little Chalfont, UK). […]

[3] = system: CD34+ cells from healthy donors
Protocol: as §1

| pIC50 (K562 cells; drug alone, FIG. 4A, read-out: IC50, K562 cell viability assay (48 h)) | pIC50 (K562 cells; in presence of CFZ, read-out: IC50 of dasatinib in presence of CFZ) | Tmax in combination group compared to individual groups [1] | SMILES | number of CFSE-bright (non-dividing) cells [2] | CrkL phosphorylation (CrkL) | viability of CD34+ hematopoietic progenitor cells from healthy controls [3] |
| --- | --- | --- | --- | --- | --- | --- |
| 6.19 | 7.91 |  | Cc1nc(Nc2ncc(C(=O)Nc3c(C)cccc3Cl)s2)cc(N2CCN(CCO)CC2)n1 [dasatinib, Dasatinib] |  |  |  |
|  |  | no change | Cc1ccc(NC(=O)c2ccc(CN3CCN(C)CC3)cc2)cc1Nc1nccc(-c2cccnc2)n1 [imatinib, Imatinib] | failed to reduce | successfully inhibited | No loss of survival |
